Results: patent US20160052898A1, “NOVEL COMPOUNDS” (BAYER PHARMA AKTIENGESELLSCHAFT, priority 2013, published 2016)

Tests used:
Format in all cases: cell-based
wildtype Wnt pathway = experiment: HEK293 Super TopFlash cellular reporter assay, Wnt-3a stimulated (wildtype Wnt pathway); conditions: Homo sapiens; HEK293 TOP reporter cells, EC50 concentration of recombinant Wnt-3a, 16 hours incubation; read-out: HEK TOP OncoFlash IC50
Outline: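 Stable HEK293 Super TopFlash and FOP reporter cells stimulated with recombinant human Wnt-3a (2500–5 ng/ml, two-fold steps). Compounds tested 50 μM to 15 nM in 3.16-fold steps in CAFTY buffer pH 7.4 with 2 mM Ca2+ and 0.01% BSA; luciferase read-out.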

[1] = system: HEK293 FOP control reporter cell line; experiment: HEK293 FOP control vector reporter assay; conditions: Homo sapiens; HEK293 FOP control reporter cells, EC50 concentration of recombinant Wnt-3a, 16 hours incubation; read-out: HEK FOP IC50
Outline: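 Stable HEK293 cells carrying FOP control vector (non-functional TCF sites), 10000 cells/well plated 24 h before, stimulated with recombinant human Wnt-3a at 2500–5 ng/ml in two-fold steps. Compounds from 50 μM to 15 nM (3.16-fold) in CAFTY buffer pH 7.4 with 2 mM Ca2+, 0.01% BSA, run in parallel with TOP line; luciferase read-out.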

[2] = system: constitutive active colorectal cancer cell (CRC) Wnt pathway; experiment: HCT116 Super TopFlash cellular reporter assay (constitutive active Wnt pathway); conditions: Homo sapiens, HCT-116, 36 h, HCT116 TOP reporter cells, luciferase expression, 36 hours incubation, 50 μM to 15 nM
Outline: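 Luciferase luminescence served as the Wnt read-out after 36 h of compound treatment at 37 °C. Compound came from a pre-dilution series (50 μM down to 15 nM, 3.16-fold steps) in CAFTY buffer. Cells were stable HCT116 TOP reporter cells, with matched FOP-vector control cells tested in parallel, seeded a day earlier.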

[3] = system: HCT116 FOP control reporter cell line; experiment: HCT116 FOP control vector reporter assay (non-functional TCF elements); conditions: Homo sapiens, HCT-116, 36 h, HCT116 FOP control reporter cells, luciferase expression, 36 hours incubation, 50 μM to 15 nM; read-out: HCT116 FOPFlash IC50
Outline: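 Stable HCT116 line carrying the non-functional FOP luciferase construct, 10000 cells/well plated 24 hrs before. Compounds 50 μM to 15 nM (3.16-fold steps) in CAFTY buffer pH 7.4 with 2 mM Ca2+, 36 hours at 37° C; luciferase luminescence read.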

Structure (SMILES)	IC50 (wildtype Wnt pathway)	IC50 [2]	IC50 [3]	IC50 [1]
COC(=O)c1ccc(-c2ccc(C(=O)Nc3ccc(OC)c(NC(=O)CN4CCOCC4)c3)cc2)cc1 [Example 79, methyl 4′-({4-methoxy-3-[(morpholin-4-ylacetyl)amino]phenyl}carbamoyl)biphenyl-4-carboxylate]	4100 nM	1480 nM	≥ 50 µM	≥ 50 µM
COc1ccc(NC(=O)c2ccc(-c3ccccc3)cc2)cc1NC(=O)CN1CC2CCC(C1)O2 [Example 32, N-{4-methoxy-3-[(8-oxa-3-azabicyclo[3.2.1]oct-3-ylacetyl)amino]phenyl}biphenyl-4-carboxamide]	520 nM	170 nM	≥ 50 µM	17 µM
COc1ccc(NC(=O)c2ccc(-c3ccc(N)cc3)cc2)cc1NC(=O)CN1CCOCC1 [Example 83, 4′-amino-N-{4-methoxy-3-[(morpholin-4-ylacetyl)amino]phenyl}biphenyl-4-carboxamide]	760 nM	319 nM	≥ 50 µM	≥ 50 µM
COc1ccc(NC(=O)c2ccc(-c3ccccc3)cc2)cc1NC(=O)[C@H](C)N1CC2CCC(C1)O2 [Example 56, N-(4-methoxy-3-{[(2S)-2-(8-oxa-3-azabicyclo[3.2.1]oct-3-yl)propanoyl]amino}phenyl)biphenyl-4-carboxamide]	4000 nM	222 nM	≥ 50 µM	≥ 50 µM
COc1ccc(NC(=O)c2ccc(-c3ccccc3)cc2)cc1NC(=O)C(C)N1CCOCC1 (centres unmarked) [Example 53, N-(4-methoxy-3-{[2-(morpholin-4-yl)propanoyl]amino}phenyl)biphenyl-4-carboxamide]	290 nM	480 nM	≥ 50 µM	6.2 µM
C[C@@H](C(=O)Nc1cc(NC(=O)c2ccc(-c3ccccc3)cc2)ccc1OC(F)(F)F)N1CC2CCC(C1)O2 [Example 59, N-[3-{[(2S)-2-(8-oxa-3-azabicyclo[3.2.1]oct-3-yl)propanoyl]amino}-4-(trifluoromethoxy)phenyl]biphenyl-4-carboxamide]	1700 nM	111 nM	40 µM	≥ 50 µM
COc1ccc(NC(=O)c2ccc(-c3ccccc3)cc2)cc1NC(=O)CN1CCOC(C)(C)C1 [Example 41, N-(3-{[(2,2-dimethylmorpholin-4-yl)acetyl]amino}-4-methoxyphenyl)biphenyl-4-carboxamide]	710 nM	2400 nM	≥ 50 µM	≥ 50 µM
CC(C)(C(=O)Nc1cc(C(=O)Nc2ccc(-c3ccccc3)cc2)ccc1C(F)(F)F)n1cccn1 [Example 4, N-(biphenyl-4-yl)-3-{[2-methyl-2-(1H-pyrazol-1-yl)propanoyl]amino}-4-(trifluoromethyl)benzamide]	400 nM	112 nM	≥ 50 µM	8.6 µM
COc1ccc(C(=O)Nc2ccc(-c3ccccc3)cc2)cc1NC(=O)CN1CCOCC1 [Example 1, N-(biphenyl-4-yl)-4-methoxy-3-[(morpholin-4-ylacetyl)amino]benzamide]	3300 nM	157 nM	≥ 50 µM	≥ 50 µM
O=C(Nc1ccc(-c2ccccc2)cc1)c1ccc(OC2CC2)c(NC(=O)C2(N3CCN(C4CC4)CC3)CC2)c1 [Example 115, N-(biphenyl-4-yl)-4-(cyclopropyloxy)-3-({[1-(4-cyclopropylpiperazin-1-yl)cyclopropyl]carbonyl}amino)benzamide]	170 nM	36.2 nM	≥ 50 µM	≥ 50 µM
COc1ccc(NC(=O)c2ccc(-c3ccccc3)cc2)cc1NC(=O)CN1CCSCC1 [Example 37, N-{4-methoxy-3-[(thiomorpholin-4-ylacetyl)amino]phenyl}biphenyl-4-carboxamide]	640 nM	1250 nM	≥ 50 µM	≥ 50 µM

The next compounds have a lower IC50 (wildtype Wnt pathway) than those just listed; values first:

IC50 (wildtype Wnt pathway)	IC50 [2]	IC50 [3]	Structure (SMILES)	IC50 [1]
77 nM	83.2 nM	≥ 50 µM	O=C(CN1CCOCC1)Nc1cc(C(=O)Nc2ccc(-c3ccccc3)cc2)ccc1OC1CC1 [Example 112, N-(biphenyl-4-yl)-4-(cyclopropyloxy)-3-[(morpholin-4-ylacetyl)amino]benzamide]	≥ 50 µM
16 nM	4.58 nM	≥ 50 µM	COCc1ccc(C(=O)Nc2ccc(-c3ccccc3)cc2)cc1NC(=O)C1(N2CCOCC2)CC1 [Example 95, N-(biphenyl-4-yl)-4-(methoxymethyl)-3-({[1-(morpholin-4-yl)cyclopropyl]carbonyl}amino)benzamide]	≥ 50 µM
110 nM	34 nM	≥ 50 µM	CS(=O)(=O)Cc1ccc(C(=O)Nc2ccc(-c3ccccc3)cc2)cc1NC(=O)CN1CCOCC1 [Example 124, N-(biphenyl-4-yl)-4-[(methylsulfonyl)methyl]-3-[(morpholin-4-ylacetyl)amino]benzamide]	11 µM
120 nM	43.7 nM	≥ 50 µM	CC(C)Oc1ccc(C(=O)Nc2ccc(-c3ccccc3)cc2)cc1NC(=O)CN1CCOCC1 [Example 25, N-(biphenyl-4-yl)-4-isopropoxy-3-[(morpholin-4-ylacetyl)amino]benzamide]	≥ 50 µM
77 nM	55.2 nM	≥ 50 µM	CNC(=O)c1ccc(C(=O)Nc2ccc(-c3ccccc3)cc2)cc1NC(=O)CN1CCOCC1 [Example 22, N^4-(biphenyl-4-yl)-N^1-methyl-2-[(morpholin-4-ylacetyl)amino]terephthalamide]	≥ 50 µM
76 nM	17.2 nM	≥ 50 µM	COCCNC(=O)c1ccc(C(=O)Nc2ccc(-c3ccccc3)cc2)cc1NC(=O)CN1CCOCC1 [Example 106, N^4-(biphenyl-4-yl)-N^1-(2-methoxyethyl)-2-[(morpholin-4-ylacetyl)amino]terephthalamide]	≥ 50 µM
